Each block holds one molecule with its values, some of them ahead of it.
Assays:
[1] = Inhibition of cell invasion in human […] cells at 4 nmol/L after 24 hrs by crystal violet staining based transwell assay relative to control; type: functional
HT-144 [2] = assay: Cytotoxicity against human HT144 cells after 24 hrs by MTT assay; type: functional, cell-based; conditions: HT-144, 24 h
HT-144 [3] = assay: Cytotoxicity against human HT144 cells after 48 hrs by MTT assay; type: functional, cell-based; conditions: HT-144, 48 h
MIA PaCa-2 = assay: Cytotoxicity against human MIAPaCa2 cells after 48 hrs by MTT assay; type: functional, cell-based; conditions: MIA PaCa-2, 48 h
NCI-H460 = assay: Cytotoxicity against human H460 cells after 48 hrs by MTT assay; type: functional, cell-based; conditions: NCI-H460, 48 h
[4] = target: 72 kDa type IV collagenase (Homo sapiens) (UniProt P08253); assay: Inhibition of MMP2 (unknown origin)
HepG2 = assay: Induction of apoptosis in human HepG2 cells relative to control; type: functional, cell-based
U-937 = assay: Induction of apoptosis in human U937 cells relative to control; type: functional, cell-based
HL-60 = assay: Induction of apoptosis in human HL60 cells relative to control; type: functional, cell-based
3LL cell line = assay: Induction of apoptosis in mouse 3LL cells relative to control; type: functional, cell-based
[5] = Induction of apoptosis in human SNUC5 cells relative to control; type: functional, cell-based
HT-1080 [6] = assay: Antioxidant activity in human HT1080 cells at 100 umol/L by measuring TBARS level by spectrophotometric method relative to control; type: functional
MCF7 = assay: Cell cycle arrest in human MCF7 cells by propidium iodide staining-based flow cytometric method; type: functional
A549 = assay: Cell cycle arrest in human A549 cells by propidium iodide staining-based flow cytometric method; type: functional
DU-145 [7] = assay: Cell cycle arrest in human DU145 cells by propidium iodide staining-based flow cytometric method; type: functional
KB = assay: Cell cycle arrest in human KB cells by propidium iodide staining-based flow cytometric method; type: functional
MCF7R [8] = assay: Cytotoxicity against human MCF7/R cells at 10 uM after 72 hrs by MTS assay relative to control; type: functional
MCF7R [9] = assay: Cytotoxicity against human MCF7/R cells after 72 hrs in presence of curcumin by MTS assay relative to control; type: functional
SK-OV-3 = assay: Cell cycle arrest in human SKOV3 cells assessed as accumulation at G1 phase at 15 umol/L after 24 hrs by propidium iodide staining-based assay (reference value: 58.1%); type: functional
MDA-MB-231 = assay: Increase in MMP3 level in human MDA-MB-231 cells after 24 hrs by ELISA; type: functional, cell-based; conditions: MDA-MB-231, 24 h
HT-1080 [10] = assay: Decrease in UPA expression in human HT1080 cells; type: functional, cell-based
HT-1080 [11] = assay: Induction of DNA damage in human HT1080 cells assessed as formation of DNA breaks at 50 ug/ml by comet assay relative to control; type: functional
DU-145 [12] = assay: Cytotoxicity against human DU145 cells; type: functional, cell-based
PC-3 = assay: Cytotoxicity against human PC3 cells; type: functional, cell-based
DU-145 [13] = assay: Potentiation of PTX-induced anticancer activity in human DU145 cells assessed as reduction in PTX IC50 (reference value: 13.5 nmol/L); type: functional, cell-based
HT-29 = assay: Cytotoxicity against human HT-29 cells after 4 hrs by MTT assay; type: functional, cell-based; conditions: HT-29, 4 h
SW480 = assay: Cytotoxicity against human SW480 cells after 4 hrs by MTT assay; type: functional, cell-based; conditions: SW480, 4 h
KM12 = assay: Cytotoxicity against human KM12 cells after 4 hrs by MTT assay; type: functional, cell-based; conditions: KM12, 4 h
[14] = Cytotoxicity against human SW116 cells after 4 hrs by MTT assay; type: functional, cell-based; conditions: SW116, 4 h
WiDr = assay: Cytotoxicity against human WiDr cells after 4 hrs by MTT assay; type: functional, cell-based
Colon 26 = assay: Cytotoxicity against mouse Colon 26 cells after 4 hrs by MTT assay; type: functional, cell-based; conditions: Colon 26, 4 h, read-out: IC50
Caco-2 = assay: Cytotoxicity against human Caco2 cells by MTT assay; type: functional, cell-based

Sequence of 72 kDa type IV collagenase (Homo sapiens) (P08253 110-660 limits assumed): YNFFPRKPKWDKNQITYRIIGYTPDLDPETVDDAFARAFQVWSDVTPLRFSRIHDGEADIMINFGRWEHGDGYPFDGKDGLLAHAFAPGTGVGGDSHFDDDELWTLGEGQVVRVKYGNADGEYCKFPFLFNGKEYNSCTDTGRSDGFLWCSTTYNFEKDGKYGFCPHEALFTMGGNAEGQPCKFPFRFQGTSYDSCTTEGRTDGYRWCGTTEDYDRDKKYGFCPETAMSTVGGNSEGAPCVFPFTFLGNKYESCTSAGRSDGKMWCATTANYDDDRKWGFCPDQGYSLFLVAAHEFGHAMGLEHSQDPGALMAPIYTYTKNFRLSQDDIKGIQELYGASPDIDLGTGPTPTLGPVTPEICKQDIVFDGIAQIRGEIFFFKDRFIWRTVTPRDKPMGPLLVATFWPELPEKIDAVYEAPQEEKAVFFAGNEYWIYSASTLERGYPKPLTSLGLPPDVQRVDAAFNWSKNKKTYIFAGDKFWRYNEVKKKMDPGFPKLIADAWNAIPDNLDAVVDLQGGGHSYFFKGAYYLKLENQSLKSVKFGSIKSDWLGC

SMILES: O=C(O)/C=C/c1ccccc1 [CINNAMIC ACID]
inhibition at 0.004 µM [1]: 60%
IC50 (HT-144 [2]): 2.4 µM
IC50 (HT-144 [3]): 1.07 µM
IC50 (MIA PaCa-2): 1.33 µM
IC50 (NCI-H460): 2.1 µM

INH [4]: > 10 µmol/L
SMILES: CCCCC[C@H](O)CC(=O)CCc1ccc(O)c(OC)c1

IC50 (HepG2): 119 µM
IC50 (U-937): 39.4 µM
IC50 (HL-60): 23.7 µM
IC50 (3LL cell line): 89.6 µM
IC50 [5]: 129 µM
IC50 (MCF7): 40.7 µM
IC50 (A549): 33.5 µM
IC50 (DU-145 [7]): 33.2 µM
IC50 (KB): 38.6 µM
SMILES: C/C=C/c1ccc(O)c(OC)c1
Activity (HT-1080 [6]): 70%

SMILES: COc1cc(/C=C/c2cc(/C=C/c3ccc(O)c(OC)c3)on2)ccc1O
inhibition at 10 µM (MCF7R [8]): 57.8%
inhibition (INH) (MCF7R [9]): 57.6%

IC50 (MDA-MB-231): 11 µM
IC50 (HT-1080 [10]): 7 µM
SMILES: O=C(/C=C/c1ccc(O)cc1)CC(=O)/C=C/c1ccc(O)cc1 [BISDEMETHOXYCURCUMIN]
Activity (SK-OV-3): 79.7%

SMILES: O=C(O)/C=C/c1ccc(O)c(O)c1 [CAFFEIC ACID]
Activity (HT-1080 [11]): 85%

IC50 (DU-145 [13]): 0.0055 µM
SMILES: C/C1=C\CC(C)(C)/C=C/C(=O)/C(C)=C/CC1 [ZERUMBONE]
IC50 (DU-145 [12]): 6.9 µM
IC50 (PC-3): 9.1 µM

SMILES: COc1cc(/C=C/C(=O)C(Cc2ccc(O)c(OC)c2)C(=O)/C=C/c2ccc(O)c(OC)c2)ccc1O
IC50 (HT-29): 5.42 µM
IC50 (SW480): 4.78 µM
IC50 (KM12): 3.9 µM
IC50 [14]: 7.08 µM
IC50 (WiDr): 7.32 µM
IC50 (Colon 26): 8.91 µM

SMILES: CCOC(=O)CCC(=O)Oc1ccc(/C=C/C(=O)/C=C(O)/C=C/c2ccc(OC(=O)CCC(=O)OCC)c(OC)c2)cc1OC
IC50 (Caco-2): 1.84 µM
